Measured values: patent US4999351A, “7-aryl and heteroaryl ethers of desacetylforskolin” (Hoechst-Roussel Pharmaceuticals, Inc., priority 1989, dated 1991)
Counter-ions that a name gives are not always drawn.

Tested on: isolated guinea pig atria
Assay: Inotropic activity: increase in contractile force in isolated guinea pig atria
Details: Cavia porcellus; isolated left atrium, male guinea pig; 50% change of contractile force over the stabilized rate; Kreb's solution, 37° C., 3 Hz stimulation; read-out: Extrapolated ED50 value (concentration increasing contractile force by 50%)
Experimental: The aryl and heteroaryl ethers of desacetylforskolin of the present invention are useful in the treatment of cardiac failure by virtue of their ability to elicit a positive inotropic effect as evidenced by an increase in contractile force in an isolated guinea pig atria assay which is performed as follows: Male guinea pigs weighing 200-300 grams are stunned with a blow to the back of the head. The heart is rapidly removed and placed in a petri dish containing Kreb's solution. The ventricle is separated from the atria, the atria are sectioned in the right and left atria, and double-O silk ligatures are tied to the apex of the left atrium. The atrium is fixed to a pair of platinum plate electrodes and suspended in a 20 ml tissue bath containing Kreb's solution aerated with 95% oxygen-5% carbon dioxide at 37° C. One end of the atrium is fixed to a hook in the electrode and the other end is connected to a Grass FT03 force displacement transducer. Resting tension and stabilization time are the same as described above. The atrium is stimulated at 3 Hz, 0.5 msec duration at supramaximal voltage (constant current) via a Grass S88 stimulator and constant current unit. Force of contraction is continuously displaced on a Gould recorder Test drug is prepared as in section A and is added to the tissue baths in the same fashion. Change in contractile force from baseline is determined for each concentration, and the change in contractile force (g) is plotted against accumulated drug concentration (ug/ml). The activity of the test drug, i.e., the increase in contractile force (g) from the stabilized force expressed as the percentage change at a given concentration is determined graphically, as in the ED50 -value, i.e., the extrapolated does (μg/ml) which increases the contractile force by 50% over the stabilized rate.

Compound	EC (50% increase) [µg/mL]
C=C[C@@]1(C)CC(=O)[C@]2(O)[C@@]3(C)[C@@H](O)CCC(C)(C)[C@@H]3[C@H](O)[C@H](Oc3ncccn3)[C@@]2(C)O1 [B, 7-Desacetyl-7-(pyrimidin-2-yl)forskolin]	0.01
C=C[C@@]1(C)CC(=O)[C@]2(O)[C@@]3(C)[C@@H](O)CCC(C)(C)[C@@H]3[C@H](O)[C@H](OC(C)=O)[C@@]2(C)O1 [Compound C, Forskolin]	0.073
C=C[C@@]1(C)CC(=O)[C@]2(O)[C@@]3(C)[C@@H](O)CCC(C)(C)[C@@H]3[C@H](OC(=O)NCCN(C)C)[C@H](Oc3ccccn3)[C@@]2(C)O1 [A, 7-desacetyl-6-(2-dimethylaminoethylaminocarbonyl)-7-(pyridin-2-yl)forskolin hydrochloride hydrate]	0.009
